molecular target: HCV NS3-4A serine protease (full-length NS3-4A protein) (Hepatitis C virus genotype 1a (isolate 1) (HCV), UniProt P26664); assay: HCV NS3-4A protease assay; type: biochemical, HCV genotype 1a; conditions: strain HCV-1, fluorogenic peptide substrate, read-out: Protease assay Ex. 12 IC50
Experimental: The inhibitory activity of certain compounds of Table A against HCV NS3-4A serine protease is determined in a homogenous assay using the full-length NS3-4A protein (genotype 1a, strain HCV-1) and a commercially available internally-quenched fluorogenic peptide substrate as described by Taliani, M., et al. 1996 Anal. Biochem. 240:60-67, which is incorporated by reference in its entirety.

Chain of HCV NS3-4A serine protease (full-length NS3-4A protein) (P26664 1027-1657): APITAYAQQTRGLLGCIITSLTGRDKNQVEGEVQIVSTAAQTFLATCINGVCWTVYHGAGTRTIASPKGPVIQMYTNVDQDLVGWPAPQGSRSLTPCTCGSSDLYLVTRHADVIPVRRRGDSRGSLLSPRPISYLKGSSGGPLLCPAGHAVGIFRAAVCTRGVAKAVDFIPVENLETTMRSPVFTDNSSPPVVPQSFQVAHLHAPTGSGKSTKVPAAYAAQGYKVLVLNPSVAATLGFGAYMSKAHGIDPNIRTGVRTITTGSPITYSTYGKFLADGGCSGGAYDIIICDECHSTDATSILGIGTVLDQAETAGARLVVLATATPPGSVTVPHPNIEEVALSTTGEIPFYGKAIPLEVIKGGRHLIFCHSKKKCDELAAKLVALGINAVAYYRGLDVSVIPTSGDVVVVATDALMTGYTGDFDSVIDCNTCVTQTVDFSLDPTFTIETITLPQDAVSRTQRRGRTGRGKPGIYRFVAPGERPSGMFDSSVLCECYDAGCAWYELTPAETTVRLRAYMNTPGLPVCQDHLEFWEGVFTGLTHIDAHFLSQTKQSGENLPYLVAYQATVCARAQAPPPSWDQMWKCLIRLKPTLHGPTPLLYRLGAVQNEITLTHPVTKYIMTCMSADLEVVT
Chain of HCV NS3-4A serine protease (full-length NS3-4A protein) (P26664 1658-1711 partner): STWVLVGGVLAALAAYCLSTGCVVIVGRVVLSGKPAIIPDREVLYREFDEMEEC

Structure (SMILES) | IC50
C=C[C@@H]1C[C@]1(NC(=O)[C@@H]1C[C@@]2(CN1C(=O)[C@@H](NC(=O)[C@@H](NC(=O)[C@@H]1CCCN1CC(F)(F)F)C1CCCCC1)C1CCOCC1)C(C)(C)C21CCC1)C(=O)NS(=O)(=O)N1CCCC1 [Compound 71, (5R,8S)-7-[(2S)-2-{[(2S)-2-cyclohexyl-2-({[(2S)-1-(2,2,2-trifluoroethyl)pyrrolidin-2-yl]carbonyl}amino)acetyl]amino}-2-(tetrahydro-2H-pyran-4-yl)acetyl]-10,10-dimethyl-N-{(1R,2S)-1-[(pyrrolidin-1-ylsulfonyl)carbamoyl]-2-vinylcyclopropyl}-7-azadispiro[3.0.4.1]decane-8-carboxamide] | 40 nM
C=C[C@@H]1C[C@]1(NC(=O)[C@@H]1C[C@@]2(CN1C(=O)[C@@H](NC(=O)[C@@H](NC(=O)c1ccc3c(ccn3C)c1)C1CCCCC1)C(C)(C)C)C(C)(C)C21CCC1)C(=O)NS(=O)(=O)N1CCCC1 [Compound 198, (5R,8S)-7-{(2S)-2-[(cyclohexyl{[(1-methyl-1H-indol-5-yl)carbonyl]amino}acetyl)amino]-3,3-dimethylbutanoyl}-10,10-dimethyl-N-{(1R,2S)-1-[(pyrrolidin-1-ylsulfonyl)carbamoyl]-2-vinylcyclopropyl}-7-azadispiro[3.0.4.1]decane-8-carboxamide] | 40 nM
C=C[C@@H]1C[C@]1(NC(=O)[C@@H]1C[C@@]2(CN1C(=O)[C@@H](NC(=O)[C@@H](NC(=O)[C@@H]1CCCCN1C(C)C)C1(C)CCCCC1)C1(C)CCOCC1)C(C)(C)C21CCC1)C(=O)NS(=O)(=O)N(CC)CC [Compound 152, (5R,8S)-N-[(1R,2S)-1-{[(diethylamino)sulfonyl]carbamoyl}-2-vinylcyclopropyl]-7-[(2S)-2-{[(2S)-2-({[(2S)-1-isopropylpiperidin-2-yl]carbonyl}amino)-2-(1-methylcyclohexyl)acetyl]amino}-2-(4-methyltetrahydro-2H-pyran-4-yl)acetyl]-10,10-dimethyl-7-azadispiro[3.0.4.1]decane-8-carboxamide] | 1.1 nM
C=C[C@@H]1C[C@]1(NC(=O)[C@@H]1C[C@@]2(CN1C(=O)[C@@H](NC(=O)[C@@H](NC(=O)[C@@H]1CCCN1C(C)C)C1CCCCC1)C(C)(C)C)C(C)(C)C21CCC1)C(=O)NS(=O)(=O)N(C)CC [Compound 91, (5R,8S)-7-[(2S)-2-{[(2S)-2-cyclohexyl-2-({[(2S)-1-isopropylpyrrolidin-2-yl]carbonyl}amino)acetyl]amino}-3,3-dimethylbutanoyl]-N-[(1R,2S)-1-({[ethyl(methyl)amino]sulfonyl}carbamoyl)-2-vinylcyclopropyl]-10,10-dimethyl-7-azadispiro[3.0.4.1]decane-8-carboxamide] | 5 nM
C=C[C@@H]1C[C@]1(NC(=O)[C@@H]1C[C@@]2(CN1C(=O)[C@@H](NC(=O)[C@@H](NC(=O)[C@@H]1CCCCN1C1CCCC1)C(C)(C)C)C(C)(C)C)C(C)(C)C21CCC1)C(=O)NS(=O)(=O)N1CCCC1 [Compound 31, (5R,8S)-7-[(2S)-2-{[(2S)-2-({[(2S)-1-cyclopentylpiperidin-2-yl]carbonyl}amino)-3,3-dimethylbutanoyl]amino}-3,3-dimethylbutanoyl]-10,10-dimethyl-N-{(1R,2S)-1-[(pyrrolidin-1-ylsulfonyl)carbamoyl]-2-vinylcyclopropyl}-7-azadispiro[3.0.4.1]decane-8-carboxamide] | 8 nM
C=C[C@@H]1C[C@]1(NC(=O)[C@@H]1C[C@@]2(CN1C(=O)[C@@H](NC(=O)[C@@H](NC(=O)C(C)(C)N1CCCCC1)C1CCCCC1)C(C)(C)C)C(C)(C)C21CCC1)C(=O)NS(=O)(=O)N1CCCC1 [Compound 25, (5R,8S)-7-[(2S)-2-({(2S)-2-cyclohexyl-2-[(2-methyl-2-piperidin-1-ylpropanoyl)amino]acetyl}amino)-3,3-dimethylbutanoyl]-10,10-dimethyl-N-{(1R,2S)-1-[(pyrrolidin-1-ylsulfonyl)carbamoyl]-2-vinylcyclopropyl}-7-azadispiro[3.0.4.1]decane-8-carboxamide] | 8 nM
C=C[C@@H]1C[C@]1(NC(=O)[C@@H]1C[C@@]2(CN1C(=O)[C@@H](NC(=O)[C@@H](NC(=O)[C@@H]1CCCCN1C(C)C)C1CCCCC1)C1CCOCC1)C(C)(C)C21CCC1)C(=O)NS(=O)(=O)N1CCCC1 [Compound 41, (5R,8S)-7-[(2S)-2-{[(2S)-2-cyclohexyl-2-({[(2S)-1-isopropylpiperidin-2-yl]carbonyl}amino)acetyl]amino}-2-(tetrahydro-2H-pyran-4-yl)acetyl]-10,10-dimethyl-N-{(1R,2S)-1-[(pyrrolidin-1-ylsulfonyl)carbamoyl]-2-vinylcyclopropyl}-7-azadispiro[3.0.4.1]decane-8-carboxamide] | 0.9 nM
C=C[C@@H]1C[C@]1(NC(=O)[C@@H]1C[C@@]2(CN1C(=O)[C@@H](NC(=O)[C@@H](NC(=O)[C@@H]1CCN1C(C)C)C(C)(C)C)C(C)(C)C)C(C)(C)C21CCC1)C(=O)NS(=O)(=O)N1CCCC1 [Compound 12, (5R,8S)-7-[(2S)-2-{[(2S)-2-({[(2S)-1-isopropylazetidin-2-yl]carbonyl}amino)-3,3-dimethylbutanoyl]amino}-3,3-dimethylbutanoyl]-10,10-dimethyl-N-{(1R,2S)-1-[(pyrrolidin-1-ylsulfonyl)carbamoyl]-2-vinylcyclopropyl}-7-azadispiro[3.0.4.1]decane-8-carboxamide] | 40 nM
C=C[C@@H]1C[C@]1(NC(=O)[C@@H]1C[C@@]2(CN1C(=O)[C@@H](NC(=O)[C@@H](NC(=O)[C@@H]1CCCN(CC)C1)C(C)(C)C)C(C)(C)C)C(C)(C)C21CCC1)C(=O)NS(=O)(=O)N1CCCC1 [Compound 4, (5R,8S)-7-[(2S)-2-{[(2S)-2-({[(3R)-1-ethylpiperidin-3-yl]carbonyl}amino)-3,3-dimethylbutanoyl]amino}-3,3-dimethylbutanoyl]-10,10-dimethyl-N-{(1R,2S)-1-[(pyrrolidin-1-ylsulfonyl)carbamoyl]-2-vinylcyclopropyl}-7-azadispiro[3.0.4.1]decane-8-carboxamide] | 35 nM
C=C[C@@H]1C[C@]1(NC(=O)[C@@H]1C[C@@]2(CN1C(=O)[C@@H](NC(=O)[C@@H](NC(=O)[C@@H]1CCCCN1C(C)C)C1CCCCC1)C(C)(C)C)C(C)(C)C21CCC1)C(=O)NS(=O)(=O)N(C)C(C)C [Compound 108, (5R,8S)-7-[(2S)-2-{[(2S)-2-cyclohexyl-2-({[(2S)-1-isopropylpiperidin-2-yl]carbonyl}amino)acetyl]amino}-3,3-dimethylbutanoyl]-N-[(1R,2S)-1-({[isopropyl(methyl)amino]sulfonyl}carbamoyl)-2-vinylcyclopropyl]-10,10-dimethyl-7-azadispiro[3.0.4.1]decane-8-carboxamide] | 6 nM
C=C[C@@H]1C[C@]1(NC(=O)[C@@H]1C[C@@]2(CN1C(=O)[C@@H](NC(=O)[C@@H](NC(=O)[C@@H]1CCCN1CC)C1CCCCC1)C(C)(C)C)C(C)(C)C21CCC1)C(=O)NS(=O)(=O)N(C)CCC [Compound 98, (5R,8S)-7-[(2S)-2-{[(2S)-2-cyclohexyl-2-({[(2S)-1-ethylpyrrolidin-2-yl]carbonyl}amino)acetyl]amino}-3,3-dimethylbutanoyl]-10,10-dimethyl-N-[(1R,2S)-1-({[methyl(propyl)amino]sulfonyl}carbamoyl)-2-vinylcyclopropyl]-7-azadispiro[3.0.4.1]decane-8-carboxamide] | 7 nM
C=C[C@@H]1C[C@]1(NC(=O)[C@@H]1C[C@@]2(CN1C(=O)[C@@H](NC(=O)[C@@H](NC(=O)[C@@H]1CCCCN1C(C)C)C1CCCCC1)C(C)(C)C)C(C)(C)C21CCC1)C(=O)NS(=O)(=O)N(C)C1CCC1 [Compound 49, (5R,8S)-N-[(1R,2S)-1-({[cyclobutyl(methyl)amino]sulfonyl}carbamoyl)-2-vinylcyclopropyl]-7-[(2S)-2-{[(2S)-2-cyclohexyl-2-({[(2S)-1-isopropylpiperidin-2-yl]carbonyl}amino)acetyl]amino}-3,3-dimethylbutanoyl]-10,10-dimethyl-7-azadispiro[3.0.4.1]decane-8-carboxamide] | 3.3 nM
C=C[C@@H]1C[C@]1(NC(=O)[C@@H]1C[C@@]2(CN1C(=O)[C@@H](NC(=O)[C@@H](NC(=O)c1cnccn1)C1CCCCC1)C(C)(C)C)C(C)(C)C21CCC1)C(=O)NS(=O)(=O)N(C)CC [Compound 167, (5R,8S)-7-[(2S)-2-({(2S)-2-cyclohexyl-2-[(pyrazin-2-ylcarbonyl)amino]acetyl}amino)-3,3-dimethylbutanoyl]-N-[(1R,2S)-1-({[ethyl(methyl)amino]sulfonyl}carbamoyl)-2-vinylcyclopropyl]-10,10-dimethyl-7-azadispiro[3.0.4.1]decane-8-carboxamide] | 0.6 nM
C=C[C@@H]1C[C@]1(NC(=O)[C@@H]1C[C@@]2(CN1C(=O)[C@@H](NC(=O)[C@@H](NC(=O)[C@@H]1CCCN1CC)C1CCCCC1)C1(C)CCOCC1)C(C)(C)C21CCC1)C(=O)NS(=O)(=O)N1CCCC1 [Compound 125, (5R,8S)-7-[(2S)-2-{[(2S)-2-cyclohexyl-2-({[(2S)-1-ethylpyrrolidin-2-yl]carbonyl}amino)acetyl]amino}-2-(4-methyltetrahydro-2H-pyran-4-yl)acetyl]-10,10-dimethyl-N-{(1R,2S)-1-[(pyrrolidin-1-ylsulfonyl)carbamoyl]-2-vinylcyclopropyl}-7-azadispiro[3.0.4.1]decane-8-carboxamide] | < 0.3 nM
C=C[C@@H]1C[C@]1(NC(=O)[C@@H]1C[C@@]2(CN1C(=O)[C@@H](NC(=O)[C@@H](NC(=O)[C@H]1CCCCN1CC)C1CCCCC1)C(C)(C)C)C(C)(C)C21CCC1)C(=O)NS(=O)(=O)N1CCCC1 [Compound 36, (5R,8S)-7-[(2S)-2-{[(2S)-2-cyclohexyl-2-({[(2R)-1-ethylpiperidin-2-yl]carbonyl}amino)acetyl]amino}-3,3-dimethylbutanoyl]-10,10-dimethyl-N-{(1R,2S)-1-[(pyrrolidin-1-ylsulfonyl)carbamoyl]-2-vinylcyclopropyl}-7-azadispiro[3.0.4.1]decane-8-carboxamide] | 3.5 nM
